≈ marks a conversion by molar mass, not a printed value. Calls of active or inactive are those of the source. No cut-off for these calls is given here.
Legend:
Escherichia coli [1] = test: Antimicrobial activity against Escherichia coli ATCC 25922 assessed as zone of inhibition at 4 mg/ml incubated for 24 hrs by agar well diffusion method; type: functional; conditions: read-out: IZ
Salmonella typhi [2] = test: Antimicrobial activity against Salmonella typhi ATCC 23564 incubated for 24 hrs by broth microdilution method; type: functional, Salmonella enterica subsp. enterica serovar Typhi; conditions: Salmonella enterica
[3] = test system: Mycobacterium tuberculosis; test: Antimycobacterial activity against Mycobacterium tuberculosis H37Rv assessed as bacterial growth inhibition; type: functional
[4] = Antioxidant activity assessed as DPPH radical scavenging activity at 250 to 1000 ug/ml after 30 mins by UV-Vis spectrophotometric analysis; type: functional; conditions: dose microg/ml 250-1000, time 30.0 min
Pseudomonas aeruginosa [5] = test: Antimicrobial activity against Pseudomonas aeruginosa ATCC 19429 incubated for 24 hrs by broth microdilution method; type: functional
[6] = test system: Mycobacterium tuberculosis; test: Antimycobacterial activity against Mycobacterium tuberculosis H37Rv assessed as bacterial growth inhibition at MIC of 31 uM; type: functional; design: scale not given: the % may be the effect or the level left
Escherichia coli [7] = test: Antimicrobial activity against Escherichia coli ATCC 25922 incubated for 24 hrs by broth microdilution method; type: functional
Staphylococcus aureus [8] = test: Antimicrobial activity against Staphylococcus aureus ATCC 29737 incubated for 24 hrs by broth microdilution method; type: functional
Pseudomonas aeruginosa [9] = test: Antimicrobial activity against Pseudomonas aeruginosa ATCC 19429 assessed as zone of inhibition at 4 mg/ml incubated for 24 hrs by agar well diffusion method; type: functional; conditions: for zone of inhibition at 4000 µg/mL: read-out: IZ
Staphylococcus aureus [10] = test: Antimicrobial activity against Staphylococcus aureus ATCC 29737 assessed as zone of inhibition at 4 mg/ml incubated for 24 hrs by agar well diffusion method; type: functional; conditions: read-out: IZ
[11] = test system: Mycobacterium tuberculosis; test: Antimycobacterial activity against Mycobacterium tuberculosis H37Rv assessed as bacterial growth inhibition at the MIC of 153 uM; type: functional; design: scale not given: the % may be the effect or the level left
[12] = test system: Mycobacterium tuberculosis; test: Antimycobacterial activity against Mycobacterium tuberculosis H37Rv assessed as bacterial growth inhibition at MIC of 1.4 uM; type: functional; design: scale not given: the % may be the effect or the level left
[13] = test system: Mycobacterium tuberculosis; test: Antimycobacterial activity against Mycobacterium tuberculosis H37Rv assessed as bacterial growth inhibition at MIC of 237 uM; type: functional; design: scale not given: the % may be the effect or the level left
Salmonella typhi [14] = test: Antimicrobial activity against Salmonella typhi ATCC 23564 assessed as zone of inhibition at 4 mg/ml incubated for 24 hrs by agar well diffusion method; type: functional, Salmonella enterica subsp. enterica serovar Typhi; conditions: Salmonella enterica, read-out: IZ
[15] = test system: Mycobacterium tuberculosis; test: Antimycobacterial activity against Mycobacterium tuberculosis H37Rv assessed as bacterial growth inhibition at MIC of 1343 uM; type: functional; design: scale not given: the % may be the effect or the level left
[16] = test system: Mycobacterium tuberculosis; test: Antimycobacterial activity against Mycobacterium tuberculosis H37Rv assessed as bacterial growth inhibition at MIC of 294 uM; type: functional; design: scale not given: the % may be the effect or the level left
[17] = test system: Mycobacterium tuberculosis; test: Antimycobacterial activity against Mycobacterium tuberculosis H37Rv assessed as bacterial growth inhibition at MIC of 34 uM; type: functional; design: scale not given: the % may be the effect or the level left
MCF7 [18] = test: Anticancer activity against human MCF7 cells assessed as inhibition of cell growth at 20 to 80 ug/ml by sulforhodamine B assay; type: functional, cell-based; conditions: dose microg/ml 20-80
[19] = test system: Mycobacterium tuberculosis; test: Antimycobacterial activity against Mycobacterium tuberculosis H37Rv assessed as bacterial growth inhibition at MIC of 144 uM; type: functional; design: scale not given: the % may be the effect or the level left
HeLa = test: Anticancer activity against human HeLa cells assessed as inhibition of cell growth at 40 to 80 ug/ml by sulforhodamine B assay; type: functional, cell-based; conditions: dose microg/ml 40-80
MCF7 [20] = test: Anticancer activity against human MCF7 cells assessed as inhibition of cell growth at 80 ug/ml by sulforhodamine B assay; type: functional, cell-based; conditions: dose 80.0 µg/ml
[21] = test system: Mycobacterium tuberculosis; test: Antimycobacterial activity against Mycobacterium tuberculosis H37Rv assessed as bacterial growth inhibition at MIC of 566 uM; type: functional; design: scale not given: the % may be the effect or the level left
[22] = test system: Mycobacterium tuberculosis; test: Antimycobacterial activity against Mycobacterium tuberculosis H37Rv assessed as bacterial growth inhibition at MIC of 164 uM; type: functional; design: scale not given: the % may be the effect or the level left
[23] = test system: Mycobacterium tuberculosis; test: Antimycobacterial activity against Mycobacterium tuberculosis H37Rv assessed as bacterial growth inhibition at MIC of 614 uM; type: functional; design: scale not given: the % may be the effect or the level left
[24] = test system: Mycobacterium tuberculosis; test: Antimycobacterial activity against Mycobacterium tuberculosis H37Rv assessed as bacterial growth inhibition at MIC of 15 uM; type: functional; design: scale not given: the % may be the effect or the level left
[25] = test system: Mycobacterium tuberculosis; test: Antimycobacterial activity against Mycobacterium tuberculosis H37Rv assessed as bacterial growth inhibition at the MIC of 266 uM; type: functional; design: scale not given: the % may be the effect or the level left

| Compound | zone of inhibition at 4000 µg/mL (Escherichia coli [1]) [mm] | MIC (Salmonella typhi [2]) [µM] | MIC [3] [µM] | Activity [4] | MIC (Pseudomonas aeruginosa [5]) [µM] | MIC (Escherichia coli [7]) [µM] | MIC (Staphylococcus aureus [8]) [µM] | zone of inhibition at 4000 µg/mL (Pseudomonas aeruginosa [9]) [mm] | zone of inhibition at 4000 µg/mL (Staphylococcus aureus [10]) [mm] | zone of inhibition at 4000 µg/mL (Salmonella typhi [14]) [mm] | also measured |
| --- | --- | --- | --- | --- | --- | --- | --- | --- | --- | --- | --- |
| COc1cccc(C2=CC(c3ccc(Cl)cc3)N(C(=O)c3ccncc3)N2)c1 (configuration not stated) | 12.3 | 511 (≈ 200 µg/mL) | 31 (≈ 12.1 µg/mL) | Active | 63 (≈ 24.7 µg/mL) | 127 (≈ 49.8 µg/mL) | 31 (≈ 12.1 µg/mL) | 12.3 | 27.2 | – | Activity [6]: 99% |
| O=C(c1ccncc1)N1NC(c2ccc(Br)cc2)=CC1c1ccccc1 (configuration not stated) | – | 492 (≈ 200 µg/mL) | 153 (≈ 62.2 µg/mL) | Active | 123 (≈ 50 µg/mL) | 123 (≈ 50 µg/mL) | 492 (≈ 200 µg/mL) | 10.3 | – | – | Activity [11]: 97% |
| NNC(=O)c1ccncc1 [ISONIAZID] | – | – | 1.4 (≈ 0.192 µg/mL) | – | – | – | – | – | – | – | Activity [12]: 99% |
| Cc1ccc(C2=CC(c3ccc(Br)cc3)N(C(=O)c3ccncc3)N2)cc1 (configuration not stated) | – | 237 (≈ 99.6 µg/mL) | 237 (≈ 99.6 µg/mL) | Active | 14 (≈ 5.88 µg/mL) | 118 (≈ 49.6 µg/mL) | 14 (≈ 5.88 µg/mL) | 20.4 | 25.4 | – | Activity [13]: 97% |
| O=C(c1ccncc1)N1NC(c2ccccc2)=CC1c1cccc([N+](=O)[O-])c1 (configuration not stated) | 10.2 | 537 (≈ 200 µg/mL) | 1340 (≈ 500 µg/mL) | Active | 67 (≈ 24.9 µg/mL) | 268 (≈ 99.8 µg/mL) | 537 (≈ 200 µg/mL) | 12.3 | 8.4 | 15.3 | Activity [15]: 95% |
| O=C(c1ccncc1)N1NC(c2ccc(F)cc2)=CC1c1ccc(Br)cc1 (configuration not stated) | – | 117 (≈ 49.6 µg/mL) | 294 (≈ 125 µg/mL) | Active | 29 (≈ 12.3 µg/mL) | 58 (≈ 24.6 µg/mL) | 235 (≈ 99.7 µg/mL) | 12.4 | 17.8 | 22.3 | Activity [16]: 96% |
| Cc1ccc(C2=CC(c3ccc(F)cc3)N(C(=O)c3ccncc3)N2)cc1 (configuration not stated) | – | 278 (≈ 99.9 µg/mL) | 34 (≈ 12.2 µg/mL) | Active | 139 (≈ 50 µg/mL) | 139 (≈ 50 µg/mL) | 17 (≈ 6.11 µg/mL) | – | 27 | – | Activity [17]: 99%; inhibition zone (IZ) (Pseudomonas aeruginosa [9]): Active; Activity (MCF7 [18]): Active |
| COc1cccc(C2=CC(c3ccc(Br)cc3)N(C(=O)c3ccncc3)N2)c1 (configuration not stated) | 16.4 | 114 (≈ 49.7 µg/mL) | 144 (≈ 62.8 µg/mL) | Active | 229 (≈ 99.9 µg/mL) | 57 (≈ 24.9 µg/mL) | 14 (≈ 6.11 µg/mL) | 14.3 | 26.4 | 22.4 | Activity [19]: 98%; Activity (HeLa): Active; Activity (MCF7 [20]): Active |
| O=C(c1ccncc1)N1NC(c2ccc(Cl)cc2Cl)=CC1c1cccc([N+](=O)[O-])c1 (configuration not stated) | 12.4 | 453 (≈ 200 µg/mL) | 566 (≈ 250 µg/mL) | Active | 453 (≈ 200 µg/mL) | 113 (≈ 49.9 µg/mL) | 226 (≈ 99.7 µg/mL) | – | 23.8 | 21 | Activity [21]: 95% |
| CC1(C)S[C@@H]2[C@H](NC(=O)[C@H](N)c3ccccc3)C(=O)N2[C@H]1C(=O)O [AMPICILLIN] | 24.4 | – | – | – | – | 8.9 (≈ 3.11 µg/mL) | 8.9 (≈ 3.11 µg/mL) | – | 27.3 | – | – |
| CN[C@@H]1[C@H](O[C@H]2[C@H](O[C@H]3[C@H](O)[C@@H](O)[C@H](N=C(N)N)[C@@H](O)[C@@H]3N=C(N)N)O[C@@H](C)[C@]2(O)C=O)O[C@@H](CO)[C@H](O)[C@H]1O [STREPTOMYCIN] | 22.2 | 5.3 (≈ 3.08 µg/mL) | – | – | 5.3 (≈ 3.08 µg/mL) | 5.3 (≈ 3.08 µg/mL) | 5.3 (≈ 3.08 µg/mL) | 25 | 30.6 | 29.1 | – |
| O=C(c1ccncc1)N1NC(c2ccc(Cl)cc2)=CC1c1ccc(F)cc1 (configuration not stated) | 15 | 263 (≈ 99.9 µg/mL) | 164 (≈ 62.3 µg/mL) | Active | 131 (≈ 49.8 µg/mL) | 32 (≈ 12.2 µg/mL) | 131 (≈ 49.8 µg/mL) | 12.3 | 22.3 | – | Activity [22]: 96% |
| O=C(c1ccncc1)N1NC(c2ccc(Cl)cc2)=CC1c1ccc([N+](=O)[O-])cc1 (configuration not stated) | 17.1 | 245 (≈ 99.7 µg/mL) | 614 (≈ 250 µg/mL) | Active | 122 (≈ 49.6 µg/mL) | 122 (≈ 49.6 µg/mL) | 245 (≈ 99.7 µg/mL) | 14.2 | 23.4 | 18.3 | Activity [23]: 95% |
| CC[C@@H](CO)NCCN[C@@H](CC)CO [ETHAMBUTOL] | – | – | 15 (≈ 3.06 µg/mL) | – | – | – | – | – | – | – | Activity [24]: 99% |
| Cc1ccc(C2C=C(c3ccc(Cl)cc3)NN2C(=O)c2ccncc2)cc1 (configuration not stated) | 12.6 | 533 (≈ 200 µg/mL) | 266 (≈ 100 µg/mL) | Active | 133 (≈ 50 µg/mL) | 533 (≈ 200 µg/mL) | 66 (≈ 24.8 µg/mL) | – | – | 21.4 | Activity [25]: 98% |

From ChEMBL document CHEMBL4699513, “Sulfamic acid catalyzed synthesis of new 3,5-[(sub)phenyl]-1H-pyrazole bearing N-isonicotinoyl: And their pharmacological activity evaluation” (2020)
